Literature values in article PMC9762682, “Tocotrienols: Exciting Biological and Pharmacological Properties of Tocotrienols and Naturally Occurring Compounds, Part II” (Annals of clinical case reports, 2022).
Where two headings read alike, the source gives them in different places. Marks after values point to notes of the source that are not given here.

Experiments:
[1] = parameters: method as in ref 14 = [14]; PMID 27493840; doi:10.4172/2155-9880.1000434; 14. Qureshi AA , Khan DA , Saleem S , Silswal N , Trias AM , Tan B , Pharmacokinetics and bioavailability of Annatto δ-tocotrienol in healthy fed subjects . J Clin Exp Cardiol . 2015; 6 : 11 . 10.417; conditions: for time of appearance in the plasma: after δ-tocotrienol administration to well-fed subjects; for Elimination of Half-life time (t1/2) / Elimination rate constant (ke) / Plasma Peak Concentration (Cmax) / Time to achieve plasma peak (Tmax): healthy fed subjects
[2] = parameters: method as in ref 16 = [16]; PMID 27493840; doi:10.4172/2155-9880.1000434; 16. Qureshi AA , Khan DA , Silswal N , Saleem S , Qureshi N . Evaluation of pharmacokinetics and bioavailability of higher doses of δ-tocotrienol in healthy fed humans . J Clin Exp Cardiol . 2016; 7
[3] = plasma tocol after single 125 mg δ-tocotrienol dose
[4] = plasma tocol after single 250 mg δ-tocotrienol dose
[5] = plasma tocol after single 500 mg δ-tocotrienol dose
[6] = 0 Hr., single dose 750 mg δ-tocotrienol
[7] = 0 Hr., single dose 1000 mg δ-tocotrienol
[8] = 1 hr., single dose 750 mg δ-tocotrienol
[9] = 1 hr., single dose 1000 mg δ-tocotrienol
[10] = 2 hr., single dose 750 mg δ-tocotrienol
[11] = 2 hr., single dose 1000 mg δ-tocotrienol
[12] = 4 hr., single dose 750 mg δ-tocotrienol
[13] = 4 hr., single dose 1000 mg δ-tocotrienol
[14] = 6 hr., single dose 750 mg δ-tocotrienol
[15] = 6 hr., single dose 1000 mg δ-tocotrienol
[16] = 8 hr., single dose 750 mg δ-tocotrienol
[17] = 8 hr., single dose 1000 mg δ-tocotrienol
[18] = single dose 750 mg δ-tocotrienol
[19] = single dose 1000 mg δ-tocotrienol
[20] = plasma tocol after single dose 750 mg δ-tocotrienol
[21] = plasma tocol after single dose 1000 mg δ-tocotrienol

## Cc1cc(O)c(C)c2c1O[C@](C)(CCC[C@H](C)CCC[C@H](C)CCCC(C)C)CC2 [β-Tocopherol]
[1]
  time of appearance in the plasma: > 2 h
[1]; [3]
  Elimination of Half-life time (t1/2): 1.82 ± 0.23 h
  Elimination rate constant (ke): 1.247 ± 0.073^a h-1
  Plasma Peak Concentration (Cmax): 956.09 ± 70.06^a ng/mL
  Time to achieve plasma peak (Tmax): 5.18 ± 1.17 h
[1]; [4]
  Elimination of Half-life time (t1/2): 3.97 ± 0.66^a h
  Elimination rate constant (ke): 0.489 ± 0.063^b h-1
  Plasma Peak Concentration (Cmax): 949.91 ± 126.37^a ng/mL
  Time to achieve plasma peak (Tmax): 3.09 ± 0.30 h
[1]; [5]
  Elimination of Half-life time (t1/2): 3.27 ± 0.61^a h
  Elimination rate constant (ke): 0.275 ± 0.023^c h-1
  Plasma Peak Concentration (Cmax): 1045.09 ± 147.81^a ng/mL
  Time to achieve plasma peak (Tmax): 3.09 ± 0.32 h
[2]; [6]
  plasma tocol level: 542 ± 11 ng/mL
[2]; [7]
  plasma tocol level: 639 ± 38 ng/mL
[2]; [8]
  plasma tocol level: 525 ± 54 ng/mL
[2]; [9]
  plasma tocol level: 763 ± 69 ng/mL
[2]; [10]
  plasma tocol level: 599 ± 14 ng/mL
[2]; [11]
  plasma tocol level: 1025 ± 58 ng/mL
[2]; [12]
  plasma tocol level: 704 ± 29 ng/mL
[2]; [13]
  plasma tocol level: 1525 ± 32 ng/mL
[2]; [14]
  plasma tocol level: 621 ± 28 ng/mL
[2]; [15]
  plasma tocol level: 717 ± 56 ng/mL
[2]; [16]
  plasma tocol level: 278 ± 16 ng/mL
[2]; [17]
  plasma tocol level: 516 ± 51 ng/mL
[2]; [18]
  Total tocols (sum of 0-8 h): 3269 ng/mL
[2]; [19]
  Total tocols (sum of 0-8 h): 5185 ng/mL

## CC(C)=CCC/C(C)=C/CC/C(C)=C/CC[C@]1(C)CCc2c(C)c(O)cc(C)c2O1 [β-Tocotrienol]
[1]
  time of appearance in the plasma: > 2 h
[1]; [3]
  Elimination of Half-life time (t1/2): 3.92 ± 0.86^a h
  Elimination rate constant (ke): 0.542 ± 0.062^a h-1
  Plasma Peak Concentration (Cmax): 979.00 ± 79.45^a ng/mL
  Time to achieve plasma peak (Tmax): 4.00 h
[1]; [4]
  Elimination of Half-life time (t1/2): 3.90 ± 0.79^a h
  Elimination rate constant (ke): 0.404 ± 0.032^b h-1
  Plasma Peak Concentration (Cmax): 1083.73 ± 82.26^b ng/mL
[1]; [5]
  Elimination of Half-life time (t1/2): 4.39 ± 0.63^a h
  Elimination rate constant (ke): 0.192 ± 0.014^c h-1
  Plasma Peak Concentration (Cmax): 1279.00 ± 116.44^c ng/mL
  Time to achieve plasma peak (Tmax): 3.00 h
[2]; [6]
  plasma tocol level: 1145 ± 61 ng/mL
[2]; [7]
  plasma tocol level: 1220 ± 93 ng/mL
[2]; [8]
  plasma tocol level: 1565 ± 62 ng/mL
[2]; [9]
  plasma tocol level: 1516 ± 21 ng/mL
[2]; [10]
  plasma tocol level: 1568 ± 77 ng/mL
[2]; [11]
  plasma tocol level: 1830 ± 91 ng/mL
[2]; [12]
  plasma tocol level: 1885 ± 91 ng/mL
[2]; [13]
  plasma tocol level: 1937 ± 72 ng/mL
[2]; [14]
  plasma tocol level: 1538 ± 22 ng/mL
[2]; [15]
  plasma tocol level: 1315 ± 48 ng/mL
[2]; [16]
  plasma tocol level: 137 ± 102 ng/mL
[2]; [17]
  plasma tocol level: 519 ± 20 ng/mL
[2]; [20]
  Area Under the Curve-t0 - t8 (AUC0-8): 11473.96 ± 316.15^c ng/ml
  Area Under the Curve-t0 - ∞ (AUC0-∞): 11709.23 ± 459.66^c ng/ml
  Elimination of Half-life time (t1/2): 1.02 ± 0.34^c h
  Elimination rate constant (ke): 0.681 ± 0.103^b h-1
  Peak Plasma Concentration (Cmax): 1885.20 ± 90.95^c ng/ml
  Time to achieve plasma peak (Tmax): 4.00 ^a h
[2]; [21]
  Elimination of Half-life time (t1/2): 2.11 ± 0.03^b h
  Elimination rate constant (ke): 0.327 ± 0.167^a h-1
  Peak Plasma Concentration (Cmax): 1948.13 ± 66.43^c ng/ml
  Time to achieve plasma peak (Tmax): 3.33 ± 1.16^a h
[2]; [18]
  Total tocols (sum of 0-8 h): 7838 ng/mL
[2]; [19]
  Total tocols (sum of 0-8 h): 8337 ng/mL

## Cc1c(O)cc2c(c1C)O[C@](C)(CCC[C@H](C)CCC[C@H](C)CCCC(C)C)CC2 [γ-Tocopherol]
[1]
  time of appearance in the plasma: > 2 h
[1]; [3]
  Elimination of Half-life time (t1/2): 2.45 ± 0.37^a h
  Elimination rate constant (ke): 0.184 ± 0.121^a h-1
  Plasma Peak Concentration (Cmax): 507.64 ± 24.68^a ng/mL
  Time to achieve plasma peak (Tmax): 5.46 ± 0.93 h
[1]; [4]
  Elimination of Half-life time (t1/2): 5.17 ± 1.06^b h
  Elimination rate constant (ke): 0.146 ± 0.013^b h-1
  Plasma Peak Concentration (Cmax): 643.36 ± 37.26^b ng/mL
  Time to achieve plasma peak (Tmax): 3.00 h
[1]; [5]
  Elimination of Half-life time (t1/2): 4.99 ± 0.88^b h
  Elimination rate constant (ke): 0.126 ± 0.026^a h-1
  Plasma Peak Concentration (Cmax): 605.64 ± 48.17^b ng/mL
  Time to achieve plasma peak (Tmax): 2.82 ± 0.41 h
[2]; [6]
  plasma tocol level: 319 ± 30 ng/mL
[2]; [7]
  plasma tocol level: 330 ± 34 ng/mL
[2]; [8]
  plasma tocol level: 404 ± 44 ng/mL
[2]; [9]
  plasma tocol level: 412 ± 17 ng/mL
[2]; [10]
  plasma tocol level: 433 ± 26 ng/mL
[2]; [11]
  plasma tocol level: 457 ± 33 ng/mL
[2]; [12]
  plasma tocol level: 547 ± 12 ng/mL
[2]; [13]
  plasma tocol level: 589 ± 39 ng/mL
[2]; [14]
  plasma tocol level: 273 ± 67 ng/mL
[2]; [15]
  plasma tocol level: 241 ± 28 ng/mL
[2]; [16]
  plasma tocol level: 212 ± 16 ng/mL
[2]; [17]
  plasma tocol level: 183 ± 14 ng/mL
[2]; [18]
  Total tocols (sum of 0-8 h): 2188 ng/mL
[2]; single dose 750 mg δ-tocotrienol, listed as γ-tocopherol
  Total tocols (sum of 0-8 h): 5544 ng/mL
[2]; [19]
  Total tocols (sum of 0-8 h): 2212 ng/mL

## CC(C)=CCC/C(C)=C/CC/C(C)=C/CC[C@]1(C)CCc2cc(O)c(C)c(C)c2O1 [γ-Tocotrienol]
[1]
  time of appearance in the plasma: > 2 h
[1]; [3]
  Elimination of Half-life time (t1/2): 3.82 ± 0.99^a h
  Elimination rate constant (ke): 0.113 ± 0.026^a h-1
  Plasma Peak Concentration (Cmax): 281.34 ± 21.22^a ng/mL
  Time to achieve plasma peak (Tmax): 3.00 h
[1]; [4]
  Elimination rate constant (ke): 0.133 ± 0.037^a h-1
  Time to achieve plasma peak (Tmax): 3.00 h
[1]; [5]
  Elimination of Half-life time (t1/2): 2.25 ± 0.32^c h
  Elimination rate constant (ke): 0.097 ± 0.021^b h-1
  Plasma Peak Concentration (Cmax): 1224.64 ± 61.28^c ng/mL
  Time to achieve plasma peak (Tmax): 3.55 ± 0.52 h
[2]; [6]
  plasma tocol level: 795 ± 19 ng/mL
[2]; [7]
  plasma tocol level: 843 ± 13 ng/mL
[2]; [8]
  plasma tocol level: 1035 ± 10 ng/mL
[2]; [9]
  plasma tocol level: 1065 ± 7 ng/mL
[2]; [10]
  plasma tocol level: 1183 ± 16 ng/mL
[2]; [11]
  plasma tocol level: 1251 ± 32 ng/mL
[2]; [12]
  plasma tocol level: 1352 ± 23 ng/mL
[2]; [13]
  plasma tocol level: 1387 ± 10 ng/mL
[2]; [14]
  plasma tocol level: 361 ± 74 ng/mL
[2]; [15]
  plasma tocol level: 484 ± 17 ng/mL
[2]; [16]
  plasma tocol level: 329 ± 17 ng/mL
[2]; [17]
  plasma tocol level: 374 ± 27 ng/mL
[2]; [20]
  Area Under the Curve-t0 - ∞ (AUC0-∞): 7895.14 ± 73.43^b ng/ml
  Elimination of Half-life time (t1/2): 1.96 ± 0.06^b h
  Elimination rate constant (ke): 0.353 ± 0.125^a h-1
  Peak Plasma Concentration (Cmax): 1352.41 ± 28.14^b ng/ml
  Time to achieve plasma peak (Tmax): 4.00^a h
[2]; [21]
  Area Under the Curve-t0 - ∞ (AUC0-∞): 8626.41 ± 277.17^b ng/ml
  Elimination of Half-life time (t1/2): 2.12 ± 0.14^b h
  Elimination rate constant (ke): 0.328 ± 0.286^a h-1
  Time to achieve plasma peak (Tmax): 4.00^a h
[2]; [18]
  Total tocols (sum of 0-8 h): 5055 ng/mL
[2]; [19]
  Total tocols (sum of 0-8 h): 5404 ng/mL
